Where two headings read alike, the source gives them in different places.
Key:
CB1-Receptor = biological target: T1, CB1-Receptor (Homo sapiens, UniProt P21554); assay: In-vitro determination of affinity to CB1/CB2-Receptors, radioligand [3H]-CP55940; assay type: binding
T1 construct: purchased Receptor Biology, Inc
Protocol: Pharmacological Data: Pharmacological Methods I. In-vitro determination of affinity to CB1/CB2-Receptors
The in-vitro determination of the affinity of the inventive quaternary ammonium salts of substituted pyrazoline compounds to CB1/CB2-Receptors is carried out as described in the publication of Ruth A. Ross, Heather C. Brockie et al., “Agonist-inverse agonist characterization at CB1 and CB2 cannabinoid receptors of L-759633, L759656 and AM630”, British Journal of Pharmacology, 126, 665-672, (1999), whereby the transfected human CB1 and CB2 receptors of Receptor Biology, Inc. are used. The radioligand used for both receptors is [^3H]-CP55940. The respective parts of the description are hereby incorporated by reference and forms part of the present disclosure.
The affinity of the inventive substituted pyrazoline compounds to CB1/CB2 receptors was determined as described above.

[1] = biological target: recombinant human cannabinoid 1 receptor (CB1) (Homo sapiens, UniProt P21554); assay: [35S]GTPγS binding antagonistic assay against WIN 55,212-2, CHO cell membranes; assay type: biochemical; conditions: compound at 1 μM against WIN 55,212-2; 100% = effect of internal standard CB1-antagonist
Protocol: The percentage of catalepsy is determined according of the following formula: % Catalepsy=arithmetic mean/6×100 Antagonistic Assay: Materials and Methods. Membrane Preparation:
Chinese hamster ovary (CHO) cells stably expressing recombinant human cannabinoid 1 receptor (CB1) were cultured in nutrient mixture Ham's F 12 supplemented with 10% heat-inactivated fetal bovine serum, 2 mM L-glutamine, 50 U/ml penicillin, 50 U/ml streptomycin and 0.5 mg/ml geneticin. In order to obtain cells, culture flasks were washed twice with phosphate buffered saline and scraped. Then, cells were collected by centrifugation (200×g, 10 min) and stored dry at −80° C. Cells were homogenized in ice-cold 20 mM HEPES, 10 mM EDTA (pH 7.5) and centrifuged at 40,000×g for 15 min at 4° C. The pellet was resuspended in 20 mM HEPES, 0.1 mM EDTA (pH 7.5) and centrifuged for 15 min at 4° C. The final pellet was resuspended in 20 mM HEPES, 0.1 mM EDTA (pH 7.5), and divided in aliquots and stored at −80° C. until use.
[^35S]GTPγS Binding Assay:
The reaction was performed in 96-well plates. […] The incubation was terminated by rapid filtration through Millipore Multiscreen glass fiber FB, and rinsed two-times with ice-cold assay buffer. Filter plates were dried and 30 μl of scintillation liquid was added. Radioactivity was determined using Wallac Microbeta Trilux. Each experiment was performed at least in duplicate.
The average of basal [^35S]GTPγS binding was subtracted from all binding data.

[2] = In vivo testing for antiobesic activity, acute treatment; conditions: rats, acute oral administration
Protocol: III. In Vivo Testing for Antiobesic Activity a) Accute-Treatment
Normally handled rats were habituated to a reversed cycle 12/12 h, and the compound as well as saline was acutely orally administered. After administration the cumulated food intake (g) was measured at 6 h and 23 h. Following that the difference in body weight between control and compound treated animals was measured.

[3] = transfected human receptors, [3H]-CP55940, read-out: IC50

recombinant human cannabinoid 1 receptor (CB1), sequence (P21554 whole entry): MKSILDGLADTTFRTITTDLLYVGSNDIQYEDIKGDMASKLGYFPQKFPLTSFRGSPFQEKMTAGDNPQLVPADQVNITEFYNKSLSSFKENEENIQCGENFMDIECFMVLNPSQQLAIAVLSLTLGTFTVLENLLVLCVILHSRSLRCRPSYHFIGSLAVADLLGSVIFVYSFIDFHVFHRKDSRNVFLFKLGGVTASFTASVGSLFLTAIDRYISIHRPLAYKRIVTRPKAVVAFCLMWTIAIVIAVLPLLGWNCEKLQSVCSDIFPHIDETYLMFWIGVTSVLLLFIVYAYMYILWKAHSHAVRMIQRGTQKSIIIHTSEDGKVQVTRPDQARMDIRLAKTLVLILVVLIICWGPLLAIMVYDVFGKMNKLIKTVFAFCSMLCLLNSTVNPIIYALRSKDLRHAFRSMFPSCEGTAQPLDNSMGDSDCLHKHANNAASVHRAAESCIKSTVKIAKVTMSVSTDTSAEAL
T1 sequence (P21554 whole entry): as above

| SMILES | IC50 (CB1-Receptor; [3]) | Antagonism (%) [1] | IC50 (CB1-Receptor) | activity reducing body weight [2] |
| --- | --- | --- | --- | --- |
| C[C@H]1C(C(=O)NC2CCCCCC2)=NN(c2ccc(Cl)cc2Cl)[C@H]1c1ccc(Cl)cc1 (relative stereo) [Example 1, cis-5-(4-chlorophenyl)-N-cycloheptyl-1-(2,4-dichlorophenyl)-4-methyl-4,5-dihydro-1H-pyrazole-3-carboxamide] | 31.9 nM | 79 ± 18% |  |  |
| C[C@H]1C(C(=O)NC2CCCCCC2)=NN(c2ccc(Cl)cc2Cl)[C@H]1c1ccc(Br)cc1 (relative stereo) [Example 5, cis-5-(4-bromophenyl)-N-cycloheptyl-1-(2,4-dichlorophenyl)-4-methyl-4,5-dihydro-1H-pyrazole-3-carboxamide] | 30 nM | 58.1% |  |  |
| C[C@H]1C(C(=O)NC2CCCCCC2)=NN(c2ccc(Cl)cc2Cl)[C@H]1c1ccc(F)cc1 (relative stereo) [Example 7, cis-N-cycloheptyl-1-(2,4-dichlorophenyl)-5-(4-fluorophenyl)-4-methyl-4,5-dihydro-1H-pyrazole-3-carboxamide] | 112 nM | 83 ± 0% |  |  |
| COc1ccc([C@H]2[C@@H](C)C(C(=O)NC3CCCCCC3)=NN2c2ccc(Cl)cc2Cl)cc1 (relative stereo) [Example 11, cis-N-cycloheptyl-1-(2,4-dichlorophenyl)-5-(4-methoxyphenyl)-4-methyl-4,5-dihydro-1H-pyrazole-3-carboxamide] |  | 78 ± 8% | 66 nM |  |
| C[C@H]1C(C(=O)N[C@@H]2CCCC[C@H]2O)=NN(c2ccc(Cl)cc2Cl)[C@H]1c1ccc(Cl)cc1 [Example 15, (4R,5R)-5-(4-chlorophenyl)-1-(2,4-dichlorophenyl)-N-((1R,2R)-2-hydroxycyclohexyl)-4-methyl-4,5-dihydro-1H-pyrazole-3-carboxamide] |  |  |  | good activity |
| C[C@H]1C(C(=O)N[C@H]2CCCC[C@@H]2O)=NN(c2ccc(Cl)cc2Cl)[C@H]1c1ccc(Cl)cc1 [Example 17, (4R,5R)-5-(4-chlorophenyl)-1-(2,4-dichlorophenyl)-N-((1S,2S)-2-hydroxycyclohexyl)-4-methyl-4,5-dihydro-1H-pyrazole-3-carboxamide] |  | 13% |  |  |
| C[C@@H]1C(C(=O)N[C@H]2CCCC[C@@H]2O)=NN(c2ccc(Cl)cc2Cl)[C@@H]1c1ccc(Cl)cc1 [Example 18, (4S,5S)-5-(4-chlorophenyl)-1-(2,4-dichlorophenyl)-N-((1S,2S)-2-hydroxycyclohexyl)-4-methyl-4,5-dihydro-1H-pyrazole-3-carboxamide] | 69 nM | 93 ± 8% |  | good activity |
| COc1ccc([C@H]2[C@@H](C)C(C(=O)N[C@H]3CCCC[C@@H]3O)=NN2c2ccc(Cl)cc2Cl)cc1 [Example 29, (4R,5R)-5-(4-methoxyphenyl)-1-(2,4-dichlorophenyl)-N-((1S,2S)-2-hydroxycyclohexyl)-4-methyl-4,5-dihydro-1H-pyrazole-3-carboxamide] |  | 37% |  |  |
| COc1ccc([C@@H]2[C@H](C)C(C(=O)N[C@H]3CCCC[C@@H]3O)=NN2c2ccc(Cl)cc2Cl)cc1 [Example 30, (4S,5S)-5-(4-methoxyphenyl)-1-(2,4-dichlorophenyl)-N-((1S,2S)-2-hydroxycyclohexyl)-4-methyl-4,5-dihydro-1H-pyrazole-3-carboxamide] |  | 85% |  |  |

Reference: patent US7994200B2, “Cycloalkane-substituted pyrazoline derivatives, their preparation and use as medicaments” (Laboratorios del Dr. Esteve, S.A., priority 2005, dated 2011)
